From patent US10766862B2, “Crystal form and salt form of and preparation method for tyrosine kinase inhibitor” (GUANGDONG RAYNOVENT BIOTECH CO., LTD., priority 2016, dated 2020) come the findings set out here.

One assay deals with T1, VEGFR2 (Homo sapiens, UniProt P35968).
T1 construct: purchased Life technology
The assay is described as follows: Z'-LYTE Detection Kinase Assay, VEGFR2 enzyme reaction. The class given is biochemical. The text has this: (§1) It is to evaluate the inhibitory effect of the compound on three kinases VEGFR2, FGFR1, PDGFRB by detecting the enzyme activity in accordance with Z′-LYTE™ Detection Kinase Assay and using the ICso value of the compound as the index.
(§2) Recombinant human VEGFR2 and FGFR1 proteins are purchased from Life technology, and PDGFRB proteinase is purchased from Millipore.
(§3) Z-LYTE™ Kit Tyr1 and Tyr4 are purchased from Life technology.
(§4) Read with Multimode Microplate Reader Envision (PerkinElmer).
(§5) The compound to be test was subject to a 3-fold concentration gradient dilution to 11 final concentrations ranging from 10 μM to 0.17 nM 11 with two duplicate wells per concentration. The concentration of DMSO was 1% in the test reaction.
3 nM VEGFR2 protein kinase, 2 μM Tyr1 peptide, 100 μM ATP, 50 mM HEPES (pH 7.5), 10 mM MgCl2, 1 mM EGTA, 0.01% BRIJ-35. The test plate is Black Proxiplate 384-Plus plate (PerkinElmer). The reaction runs at room temperature for 60 minutes, and the reaction system is 10 μL.
(§6) 5 μL of DV reagent B (1:128) was added to the kinase reaction mixture to stopped the reaction. The reaction mixture was incubated at 23° C. for 60 minutes, and read by Envision.
(§7) The data were converted to the phosphorylation rate and the inhibition rate. The parameter curve was fitted (Model 205 in XLFIT5, iDBS) to obtain the ICso data of the compound.

For the next assay, the target named is T2, FGFR1 (Homo sapiens, UniProt P11362).
T2 construct: purchased Life technology
T2 sequence (P11362 22-822): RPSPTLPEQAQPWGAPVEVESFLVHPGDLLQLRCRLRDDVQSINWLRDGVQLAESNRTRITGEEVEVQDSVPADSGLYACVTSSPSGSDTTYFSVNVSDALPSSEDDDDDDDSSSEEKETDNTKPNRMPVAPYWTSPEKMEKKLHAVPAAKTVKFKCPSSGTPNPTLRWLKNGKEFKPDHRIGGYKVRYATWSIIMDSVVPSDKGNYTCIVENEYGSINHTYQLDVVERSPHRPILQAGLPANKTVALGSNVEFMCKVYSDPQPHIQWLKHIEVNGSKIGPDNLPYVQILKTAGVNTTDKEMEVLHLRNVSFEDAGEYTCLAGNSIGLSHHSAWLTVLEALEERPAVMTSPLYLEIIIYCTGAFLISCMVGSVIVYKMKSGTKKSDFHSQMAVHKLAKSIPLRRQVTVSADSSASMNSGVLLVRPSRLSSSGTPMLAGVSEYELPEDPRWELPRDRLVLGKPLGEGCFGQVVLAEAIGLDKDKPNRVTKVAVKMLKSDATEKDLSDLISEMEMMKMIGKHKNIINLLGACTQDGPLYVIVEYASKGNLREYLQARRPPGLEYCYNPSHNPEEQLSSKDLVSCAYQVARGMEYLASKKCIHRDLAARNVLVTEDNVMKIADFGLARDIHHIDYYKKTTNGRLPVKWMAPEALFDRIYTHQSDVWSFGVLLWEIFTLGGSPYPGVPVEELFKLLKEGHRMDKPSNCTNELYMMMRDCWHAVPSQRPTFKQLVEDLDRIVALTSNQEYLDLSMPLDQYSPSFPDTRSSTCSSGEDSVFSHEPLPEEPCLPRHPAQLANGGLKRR
The assay is described as follows: Z'-LYTE Detection Kinase Assay, FGFR1 enzyme reaction. The class given is biochemical.
Text: as §1, §2, §3, §4, §5
1 nM FGFR1 protein kinase, 2 μM Tyr4 peptide, 25 μM ATP, 50 mM HEPES (pH 7.5), 10 mM MgCl2, 1 mM EGTA, 0.01% BRIJ-35, 2 mM MnCl2, 1 mM DTT. The test plate is Black Proxiplate 384-Plus plate (PerkinElmer). The reaction runs at room temperature for 60 minutes, and the reaction system is 10 μL.
as §6, §7

For a further assay, the target named is T3, PDGFRB (Homo sapiens, UniProt P09619).
T3 construct: purchased Millipore
T3 sequence (P09619 33-1106): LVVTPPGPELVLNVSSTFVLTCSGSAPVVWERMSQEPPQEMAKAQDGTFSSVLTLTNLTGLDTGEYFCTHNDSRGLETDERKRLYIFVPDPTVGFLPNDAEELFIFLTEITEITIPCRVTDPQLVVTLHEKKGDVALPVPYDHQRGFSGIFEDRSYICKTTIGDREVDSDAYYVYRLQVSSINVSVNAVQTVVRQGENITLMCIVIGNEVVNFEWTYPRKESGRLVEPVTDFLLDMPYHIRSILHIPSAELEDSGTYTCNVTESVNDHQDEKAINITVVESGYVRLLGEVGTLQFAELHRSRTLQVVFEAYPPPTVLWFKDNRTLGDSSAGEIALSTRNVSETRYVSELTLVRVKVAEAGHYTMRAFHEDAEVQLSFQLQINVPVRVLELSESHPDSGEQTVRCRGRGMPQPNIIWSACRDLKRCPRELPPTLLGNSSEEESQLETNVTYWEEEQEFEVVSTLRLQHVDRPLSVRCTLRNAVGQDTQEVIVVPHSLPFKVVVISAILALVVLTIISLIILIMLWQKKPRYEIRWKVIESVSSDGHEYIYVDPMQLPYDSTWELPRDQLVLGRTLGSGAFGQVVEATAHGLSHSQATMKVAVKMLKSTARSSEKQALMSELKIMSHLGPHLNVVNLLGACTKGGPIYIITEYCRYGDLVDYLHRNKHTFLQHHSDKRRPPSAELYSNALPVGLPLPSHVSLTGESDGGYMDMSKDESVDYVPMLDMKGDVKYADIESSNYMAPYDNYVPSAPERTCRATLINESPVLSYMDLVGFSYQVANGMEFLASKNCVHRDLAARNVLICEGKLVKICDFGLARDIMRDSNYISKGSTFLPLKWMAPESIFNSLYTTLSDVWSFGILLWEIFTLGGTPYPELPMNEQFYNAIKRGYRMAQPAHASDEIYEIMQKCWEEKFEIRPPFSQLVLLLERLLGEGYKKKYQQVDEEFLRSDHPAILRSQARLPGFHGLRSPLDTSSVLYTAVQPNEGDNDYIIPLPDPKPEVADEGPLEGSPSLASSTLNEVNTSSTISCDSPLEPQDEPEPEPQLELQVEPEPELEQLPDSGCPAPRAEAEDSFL
Description: Z'-LYTE Detection Kinase Assay, PDGFRB enzyme reaction. The class given is biochemical.
Text: as §1, §2, §3, §4, §5
40 nM PDGFRB protein kinase, 2 μM Tyr4 peptide, 100 μM ATP, 50 mM HEPES (pH 7.5), 10 mM MgCl2, 1 mM EGTA, 0.01% BRIJ-35, 2 mM MnCl2, 1 mM DTT. The test plate is Black Proxiplate 384-Plus plate (PerkinElmer). The reaction runs at room temperature for 60 minutes, and the reaction system is […].
as §6, §7

The subject of a further assay is HUVEC. Description: CellTiter-Glo Luminescent Cell Viability Assay on HUVEC stimulated with hVEGF-165. The class given is cell-based. The settings on record: Homo sapiens, hVEGF-165 20 ng/ml, 72 hr. The method, then: It is to detect the intracellular ATP change by CellTiter-Glo® Luminescent Cell Viability Assay, and evaluate the inhibitory effect of the compound on in vitro cell HUVEC with ICso value of the compound as the index.
HUVEC cell lines (ATCC), EGM-2 BulletKit (Lonza), hVEGF-165 (Cell Signaling), pancreatin (Invitrogen), DPBS (Hyclone), 384-well cell plate (Greiner), 384-well compound plate (Greiner), CO2 incubator (Thermo), centrifuger (Eppendorf), Vi-cell Cell Count (Beckman Coulter), Bravo Automated Liquid Handing Platform (Agilent), Envision (Perkin Elmer)
Test Method • A. Cells recovery and growth. • B. Cell planking: HUVEC cells were re-suspended with a fasted media (containing only 2% FBS and 0.1% GA-1000), and diluted to a concentration of 20,000/mL. The diluted cells were added into 384-well plate (Greiner) with 50 μL/well. The cell plate was placed in an incubator containing 5% CO2 at 37° C. overnight. • C. Compound Addition: The compound to be tested was subject to a 4-fold gradient dilution to 10 samples having a final concentration ranging from 10 μM to 0.038 nM with two duplicate wells per concentration. […] The mixture was incubated at room temperature for 10-30 minutes, and read with Envision. […]

Setting [1] is: 100 μM ATP, 60 minutes, room temperature.

T1 sequence (P35968 20-1356): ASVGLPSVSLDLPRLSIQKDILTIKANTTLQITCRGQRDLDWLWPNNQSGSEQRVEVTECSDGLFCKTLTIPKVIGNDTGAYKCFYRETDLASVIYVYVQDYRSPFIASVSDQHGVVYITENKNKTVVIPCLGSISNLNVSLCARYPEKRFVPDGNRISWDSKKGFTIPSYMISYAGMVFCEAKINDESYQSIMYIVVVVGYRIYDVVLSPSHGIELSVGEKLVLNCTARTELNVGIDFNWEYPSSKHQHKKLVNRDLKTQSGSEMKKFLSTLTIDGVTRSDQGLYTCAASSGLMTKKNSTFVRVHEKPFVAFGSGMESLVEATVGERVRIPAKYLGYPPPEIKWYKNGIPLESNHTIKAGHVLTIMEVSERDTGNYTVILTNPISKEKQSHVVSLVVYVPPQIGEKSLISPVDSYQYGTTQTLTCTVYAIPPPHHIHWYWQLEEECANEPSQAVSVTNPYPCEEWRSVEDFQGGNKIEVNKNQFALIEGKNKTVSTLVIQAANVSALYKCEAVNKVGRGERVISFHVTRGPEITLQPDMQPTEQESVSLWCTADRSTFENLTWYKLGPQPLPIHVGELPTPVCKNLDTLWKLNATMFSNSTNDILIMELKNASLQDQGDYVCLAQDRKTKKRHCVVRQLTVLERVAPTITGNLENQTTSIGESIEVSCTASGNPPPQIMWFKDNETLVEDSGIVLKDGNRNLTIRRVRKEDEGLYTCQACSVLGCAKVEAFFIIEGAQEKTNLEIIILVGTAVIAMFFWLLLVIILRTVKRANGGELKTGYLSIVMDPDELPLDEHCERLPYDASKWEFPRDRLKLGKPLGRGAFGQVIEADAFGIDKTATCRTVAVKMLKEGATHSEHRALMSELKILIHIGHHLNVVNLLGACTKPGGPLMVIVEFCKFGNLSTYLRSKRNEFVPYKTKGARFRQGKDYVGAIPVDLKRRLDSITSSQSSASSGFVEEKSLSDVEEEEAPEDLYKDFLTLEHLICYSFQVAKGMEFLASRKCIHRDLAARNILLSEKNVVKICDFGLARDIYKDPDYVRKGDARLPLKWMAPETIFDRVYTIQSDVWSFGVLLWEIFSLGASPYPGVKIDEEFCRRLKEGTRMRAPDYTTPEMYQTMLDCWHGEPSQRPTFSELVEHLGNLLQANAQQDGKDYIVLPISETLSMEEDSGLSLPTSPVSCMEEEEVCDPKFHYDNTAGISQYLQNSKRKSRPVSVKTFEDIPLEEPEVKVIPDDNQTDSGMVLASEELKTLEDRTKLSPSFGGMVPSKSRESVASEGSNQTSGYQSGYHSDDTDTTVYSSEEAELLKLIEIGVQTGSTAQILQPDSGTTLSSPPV

For `COc1cc2nccc(Oc3ccc(NC(=S)NC4CC4)c(Cl)c3F)c2cc1C(N)=O` [Compound 1], the “Inhibitory activity on VEGFR2 in vitro, conclusion in words” value on VEGFR2 is “superior inhibitory activity”. The IC50 at VEGFR2 (setting [1]) is less than 50 nM; against FGFR1 (25 μM ATP, 60 minutes, room temperature), 50 to 200 nM; against PDGFRB (setting [1]) it was less than 50 nM; with HUVEC, less than 100 nM. At FGFR1, the “Inhibitory activity on FGFR1 in vitro, conclusion in words” value was “superior inhibitory activity”. In addition, the “Inhibitory activity on PDGFRB in vitro, conclusion in words” value at PDGFRB is on record as “superior inhibitory activity”.
